This is an account of results in ChEMBL document CHEMBL1821685 (Eur J Med Chem, 2011).

For orientation: solubility means the dissolved amount per volume that the medium holds. A higher solubility goes with much dissolved substance.

The nature of the series: Solubility of the compound in HEPES buffer. Format: physicochemical.

Values after ≈ are worked out from the molar mass of the structure shown.

The compound `NNC(=O)c1cnc2c(=O)[nH]c(N)nc2n1` returned a solubility of 500 µM (≈ 111 µg/mL). In the case of `CC(=O)c1cnc2c(=O)[nH]c(N)nc2n1`, the solubility is 500 µM (≈ 103 µg/mL).
